Laboratory results from patent US20220142955A1, “METHODS OF TREATING ORGANIC ACIDEMIAS” (HemoShear Therapeutics, Inc., priority 2019, published 2022).
Where two headings read alike, the source gives them in different places.

Legend:
[1] = system: primary hepatocytes of methylmalonic acidemia patients; assay: Propionyl-CoA and methylmalonyl-CoA from various sources in MMA primary hepatocytes (Examples 4, 5); type: cell-based, human; conditions: for EC50: Homo sapiens, Hepatocyte
Method: (§1) Primary hepatocytes isolated from livers of methylmalonic acidemia patients are treated with increasing doses of compound 1 (0, 1, 3, 10, 30, 100, 300, 1000 μM) for 30 minutes. […] At the end of the challenge period, media is removed and the cells are lysed with 70% MCCN and 0.1% TFA containing 100 μM of ethymalonyl-CoA as an internal standard and harvested. Cell lysates are processed for HTMS/MS analysis.
as §1, with “compound 5” for “compound 1”, “(0, 0.1, 0.3,” for “(0,”, “30, 100” for “30, 100, 300, 1000”, “30 min.” for “30 minutes.”, “70% MeCN” for “70% MCCN”

[2] = system: primary hepatocytes of propionic acidemia patients; assay: Reduction of 13C-propionyl-CoA and accumulation of compound-CoA ester after 13C-isoleucine challenge (Example 1); type: cell-based; conditions: Homo sapiens, Hepatocyte, 13C-labeled isoleucine, compound 0 μM to 1,000 μM
Method: Primary hepatocytes are isolated from explanted livers of propionic acidemia patients and are cultured on day 1 using standard protocols (see: Chapman et al. “Recapitulation of metabolic defects in a model of propionic acidemia using patient-derived primary hepatocytes” Mol. Genet. Metab. 2016, 117(3), 355-362). Approximately 2×10^5 hepatocytes are plated into each well of a collagen-coated 48-well tissue culture plate and pre-conditioned in a custom Modified Corning culture media for Hepatocells (Corning) without low levels of branched chain amino acids for 72 hours. On day 4, hepatocytes are treated with increasing doses of compound (0, 1, 3, 10, 30, 100, 300, 1000 μM) for 30 min. After 30 min the cells are challenged with ^13C-isoleucine (3 mM). At the end of the challenge period, cells are lysed in 100 μL of […] acetonitrile (MeCN) and 0.1% trifluoroacetic acid (TFA) containing 100 μM of ethymalonyl-CoA as an internal standard. Cells are removed from the well by scraping into the lysis buffer. The collected cellular samples are then dispensed into a microfuge tube. The plate wells are washed again with lysis buffer to ensure the remaining cells are dislocated from the well. All remaining collected cells are then moved into the centrifuge tube. The cellular samples are flash frozen in liquid nitrogen and stored at −80° C. To begin processing, the frozen cellular lysates are thawed on ice and vortexed. The samples are centrifuged at 20,000 g for 10 min at 4° C. and the total volume of supernatant is transferred to a no-bind 96-well plate on ice. The samples are dried under vacuum for about 2 hours and then resuspended in 150 μL of water in each well. Total volumes of samples are filtered through a prepared Durapore filter plate into a no-bind 96-well plate. The filtered samples are stored at −80° C. for HTMS/MS analysis.

[3] = system: primary hepatocytes of propionic acidemia patients; assay: Propionyl-carnitine (C3) in PA primary hepatocytes (Example 6); type: cell-based, human; conditions: for EC50: Homo sapiens, Hepatocyte, read-out: concentration of propionyl-carnitine EC50
Method: Primary hepatocytes isolated from livers of propionic acidemia patients are treated with increasing doses of compound 1 (0, 1, 3, 10, 30, 100, 300, 1000 μM) for 30 min. After 30 min the cells are challenged with ^13C-KIVA (1 mM) and ^13C-isoleucine (3 mM) for 60 minutes. At the end of the challenge period, media is removed and the cells are washed with ice cold PBS. Cells are lysed with 70% MeCN containing 4 nM of hexanoyl-carnitine as an internal standard (lysis buffer), harvested and processed for HTMS/MS analysis.

[4] = system: primary hepatocytes of propionic acidemia patients; assay: Propionyl-CoA from various sources in PA primary hepatocytes (Examples 2, 3); type: cell-based, human; conditions: for EC50: Homo sapiens, Hepatocyte, read-out: concentration of propionyl-CoA EC50
Method: Primary hepatocytes isolated from livers of propionic acidemia patients are treated with increasing doses of compound 1 (0, 1, 3, 10, 30, 100, 300, 1000 μM) for 30 min. After 30 min the cells are challenged with the different sources of P-CoA, which may include ^13C-ketoisovaleric acid (KIVA) (1 mM), […] (ILE) (3 mM), ^13C-threonine (THR) (5 mM), ^13C-methionine (MET) (5 mM), ^13C-heptanoate (100 μM), or ^13C-propionate (5 mM) for 60 minutes. At the end of the challenge period, media is removed and the cells are lysed with 70% MeCN and 0.1% TFA containing 100 μM of ethymalonyl-CoA as an internal standard and harvested. Cell lysates are processed for HTMS/MS analysis.
Primary hepatocytes isolated from livers of propionic acidemia patients are treated with increasing doses of compound 5 (0, 0.1, 0.3, 1, 3, 10, 30, 100 μM) for 30 minutes. After 30 minutes the cells are challenged with the different sources of P-CoA, which may include ^13C-KIVA (1 mM), ^13C-isoleucine (3 mM), ^13C-threonine (5 mM), ^13C-methionine (5 mM), ^13C-heptanoate (100 μM), or ^13C-propionate (5 mM) for 60 minutes. At the end of the challenge period, media is removed and the cells are lysed with 70% MeCN and 0.1% TFA containing 100 μM of ethymalonyl-CoA as an internal standard and harvested. Cell lysates are processed for HTMS/MS analysis.

[5] = system: primary hepatocytes of propionic acidemia patients; assay: Reduction of propionyl-CoA with compounds 8 and 9 (Example 9); type: cell-based, human; conditions: PA hepatocytes; 13C-isoleucine (3 mM)
Method: Primary hepatocytes isolated from livers of propionic acidemia patients are treated with increasing doses of compound 1 (0, 0.1, 0.3, 1, 3, 10, 30, 100 μM) for 30 minutes. After 30 minutes, the cells are challenged with ^13C-isoleucine (3 mM) for 60 minutes. At the end of the challenge period, media is removed and the cells are lysed with 70% MeCN and 0.1% TFA containing 100 μM of ethymalonyl-CoA as an internal standard and harvested. Cell lysates are processed for HTMS/MS analysis.

[6] = read-out: concentration of 12C-Compound-CoA ester EC50
[7] = read-out: concentration of 13C-propionyl-CoA EC50

CCCC(CCC)C(=O)O [Compound 1, 2-propylpentanoic acid (valproic acid)]
intracellular propionyl-CoA and methylmalonyl-CoA from all sources investigated [1]: dose-dependent reduction | EC50 ([1]; 100 μM 13C-propionate, read-out: concentration of methylmalonyl-CoA EC50): 89.4 µM | EC50 ([1]; 100 μM 13C-propionate, read-out: concentration of propionyl-CoA EC50): 68.2 µM | EC50 ([1]; 1 mM 13C-KIVA, read-out: concentration of methylmalonyl-CoA EC50): 31.3 µM | EC50 ([1]; 1 mM 13C-KIVA, read-out: concentration of propionyl-CoA EC50): 30.9 µM | EC50 ([1]; 3 mM 13C-ILE, read-out: concentration of methylmalonyl-CoA EC50): 25.5 µM | EC50 ([1]; 3 mM 13C-ILE, read-out: concentration of propionyl-CoA EC50): 30.8 µM | EC50 ([1]; 5 mM 13C-MET, read-out: concentration of methylmalonyl-CoA EC50): 47.3 µM | EC50 ([1]; 5 mM 13C-MET, read-out: concentration of propionyl-CoA EC50): 50.7 µM | EC50 ([1]; 5 mM 13C-THR, read-out: concentration of methylmalonyl-CoA EC50): 25.6 µM | EC50 ([1]; 5 mM 13C-THR, read-out: concentration of propionyl-CoA EC50): 13.9 µM | EC50 [2, 6]: 12.5 µM | EC50 [2, 7]: 12.4 µM | intracellular propionyl-carnitine (C3) from 13C-KIVA or 13C-isoleucine [3]: dose-dependent reduction | EC50 ([3]; 1 mM 13C-KIVA): 44.3 µM | EC50 ([3]; 3 mM 13C-ILE): 54.3 µM | intracellular propionyl-CoA from all sources investigated [4]: dose-dependent reduction | EC50 ([4]; 100 μM 13C-heptanoate): 48.2 µM | EC50 ([4]; 1 mM 13C-KIVA): 14.2 µM | EC50 ([4]; 3 mM 13C-ILE): 15 µM | EC50 ([4]; 5 mM 13C-MET): 7.14 µM | EC50 ([4]; 5 mM 13C-THR): 9.2 µM | EC50 ([4]; 5 mM 13C-propionate): 21.2 µM

CCCC(CC)C(=O)O (centres unmarked) [Compound 2, 2-ethylpentanoic acid]
EC50 [2, 6]: 1.24 µM | EC50 [2, 7]: 1.23 µM

CCCC(C)C(=O)O (centres unmarked) [Compound 3, 2-methylpentanoic acid]
EC50 [2, 6]: 27.4 µM | EC50 [2, 7]: 13 µM

CCC(CC)C(=O)O [Compound 4, 2-ethylbutanoic acid]
EC50 [2, 6]: 10.3 µM | EC50 [2, 7]: 32.4 µM

CC(C)(C)CC(=O)O [Compound 6, 3,3-dimethylbutanoic acid]
EC50 [2, 6]: 0.48 µM | EC50 [2, 7]: 0.91 µM

CC1(CC(=O)O)CC1 [Compound 7, 2-(1-methylcyclopropyl) acetic acid]
EC50 [2, 6]: 10.2 µM | EC50 [2, 7]: 28.8 µM

CC(C)(C)C(=O)O [Compound 8, 2,2,dimethylpropionic acid]
intracellular propionyl-CoA [5]: dose-dependent reduction

CCCC(C)(C)C(=O)O [Compound 9, 2,2-dimethylpentanoic acid]
intracellular propionyl-CoA [5]: dose-dependent reduction
